{"source": "PubChem BioAssay AID2060886", "about": "(Molecular Pharmacology Branch, DTP, NCI, 2025)", "system": "653999-131-R-J2-PDC complex spheroids, growth inhibition", "test": "Anticancer human tumor 653999-131-R-J2-PDC patient-derived lung adenocarcinoma cell line growth inhibition [RAS]", "conditions": "for IC50: curve of first compound; for viability, T/C: stronger effect = lower value", "in_short": "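Tumour cells grown as complex spheroids with HUVEC endothelial cells and mesenchymal stem cells, treated with RAS pathway inhibitor combinations. Each agent spans half-log steps from near clinical Cmax, or 10 microM where Cmax is unknown.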", "data": [{"compound": "CCN1CCN(Cc2ccc(Nc3ncc(F)c(-c4cc(F)c5nc(C)n(C(C)C)c5c4)n3)nc2)CC1", "note": "+ C#Cc1c(F)ccc2cc(O)cc(-c3ncc4c(N5CC6CCC(C5)N6)nc(OCC56CCCN5CC(F)C6)nc4c3F)c12;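 note: spheroids exposed to the agents for seven days before the readout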", "values": [{"measurement": "IC50", "setting": "second compound 0.0316 µM", "result": "> 1000", "unit": "nM"}, {"measurement": "IC50", "setting": "second compound 0.1 µM", "result": "> 1000", "unit": "nM"}, {"measurement": "IC50", "setting": "second compound 0.316 µM", "result": 28.2, "unit": "nM"}, {"measurement": "IC50", "setting": "second compound 1 µM", "result": "< 3.16", "unit": "nM"}, {"measurement": "IC50", "setting": "second compound 3.16 µM", "result": "< 3.16", "unit": "nM"}, {"measurement": "IC50", "setting": "second compound 10 µM", "result": "< 3.16", "unit": "nM"}, {"measurement": "viability, T/C", "setting": "second compound 0.0316 µM, first compound 0.00316 µM", "result": 74.8, "unit": "%"}, {"measurement": "viability, T/C", "setting": "second compound 0.0316 µM, first compound 0.01 µM", "result": 88.1, "unit": "%"}, {"measurement": "viability, T/C", "setting": "second compound 0.0316 µM, first compound 0.0316 µM", "result": 65.6, "unit": "%"}, {"measurement": "viability, T/C", "setting": "second compound 0.0316 µM, first compound 0.1 µM", "result": 57.4, "unit": "%"}, {"measurement": "viability, T/C", "setting": "second compound 0.0316 µM, first compound 0.316 µM", "result": 62, "unit": "%"}, {"measurement": "viability, T/C", "setting": "second compound 0.0316 µM, first compound 1 µM", "result": 63.2, "unit": "%"}, {"measurement": "viability, T/C", "setting": "second compound 0.1 µM, first compound 0.00316 µM", "result": 70.5, "unit": "%"}, {"measurement": "viability, T/C", "setting": "second compound 0.1 µM, first compound 0.01 µM", "result": 71.8, "unit": "%"}, {"measurement": "viability, T/C", "setting": "second compound 0.1 µM, first compound 0.0316 µM", "result": 57.2, "unit": "%"}, {"measurement": "viability, T/C", "setting": "second compound 0.1 µM, first compound 0.1 µM", "result": 52.1, "unit": "%"}, {"measurement": "viability, T/C", "setting": "second compound 0.1 µM, first compound 0.316 µM", "result": 54.8, "unit": "%"}, {"measurement": "viability, T/C", "setting": "second compound 0.1 µM, first compound 1 µM", "result": 61, "unit": "%"}, {"measurement": "viability, T/C", "setting": "second compound 0.316 µM, first compound 0.00316 µM", "result": 64.7, "unit": "%"}, {"measurement": "viability, T/C", "setting": "second compound 0.316 µM, first compound 0.01 µM", "result": 62.8, "unit": "%"}, {"measurement": "viability, T/C", "setting": "second compound 0.316 µM, first compound 0.0316 µM", "result": 43.8, "unit": "%"}, {"measurement": "viability, T/C", "setting": "second compound 0.316 µM, first compound 0.1 µM", "result": 49.3, "unit": "%"}, {"measurement": "viability, T/C", "setting": "second compound 0.316 µM, first compound 0.316 µM", "result": 50.8, "unit": "%"}, {"measurement": "viability, T/C", "setting": "second compound 0.316 µM, first compound 1 µM", "result": 50.5, "unit": "%"}, {"measurement": "viability, T/C", "setting": "second compound 1 µM, first compound 0.00316 µM", "result": 37.7, "unit": "%"}, {"measurement": "viability, T/C", "setting": "second compound 1 µM, first compound 0.01 µM", "result": 43.6, "unit": "%"}, {"measurement": "viability, T/C", "setting": "second compound 1 µM, first compound 0.0316 µM", "result": 39.9, "unit": "%"}, {"measurement": "viability, T/C", "setting": "second compound 1 µM, first compound 0.1 µM", "result": 30.9, "unit": "%"}, {"measurement": "viability, T/C", "setting": "second compound 1 µM, first compound 0.316 µM", "result": 29.9, "unit": "%"}, {"measurement": "viability, T/C", "setting": "second compound 1 µM, first compound 1 µM", "result": 41.7, "unit": "%"}, {"measurement": "viability, T/C", "setting": "second compound 3.16 µM, first compound 0.00316 µM", "result": 35.3, "unit": "%"}, {"measurement": "viability, T/C", "setting": "second compound 3.16 µM, first compound 0.01 µM", "result": 31.7, "unit": "%"}, {"measurement": "viability, T/C", "setting": "second compound 3.16 µM, first compound 0.0316 µM", "result": 34.4, "unit": "%"}, {"measurement": "viability, T/C", "setting": "second compound 3.16 µM, first compound 0.1 µM", "result": 26.6, "unit": "%"}, {"measurement": "viability, T/C", "setting": "second compound 3.16 µM, first compound 0.316 µM", "result": 33.3, "unit": "%"}, {"measurement": "viability, T/C", "setting": "second compound 3.16 µM, first compound 1 µM", "result": 33.3, "unit": "%"}, {"measurement": "viability, T/C", "setting": "second compound 10 µM, first compound 0.00316 µM", "result": 18.4, "unit": "%"}, {"measurement": "viability, T/C", "setting": "second compound 10 µM, first compound 0.01 µM", "result": 17.3, "unit": "%"}, {"measurement": "viability, T/C", "setting": "second compound 10 µM, first compound 0.0316 µM", "result": 22.3, "unit": "%"}, {"measurement": "viability, T/C", "setting": "second compound 10 µM, first compound 0.1 µM", "result": 19.4, "unit": "%"}, {"measurement": "viability, T/C", "setting": "second compound 10 µM, first compound 0.316 µM", "result": 20.2, "unit": "%"}, {"measurement": "viability, T/C", "setting": "second compound 10 µM, first compound 1 µM", "result": 26.9, "unit": "%"}]}, {"compound": "NC1c2ccccc2OC12CCN(c1cnc3c(N4CCCc5ncccc54)n[nH]c3n1)CC2", "note": "(centres undefined) + CCn1c(-c2cc(N3CCN(C)CC3)cnc2C(C)OC)c2c3cc(ccc31)-c1csc(n1)CC(NC(=O)C1CC1C)C(=O)N1CCCC(N1)C(=O)OCC(C)(C)C2", "values": [{"measurement": "IC50", "setting": "second compound 0.000949 µM", "result": "> 10000", "unit": "nM"}, {"measurement": "IC50", "setting": "second compound 0.003 µM", "result": 65.7, "unit": "nM"}, {"measurement": "IC50", "setting": "second compound 0.00949 µM", "result": "< 31.6", "unit": "nM"}, {"measurement": "IC50", "setting": "second compound 0.03 µM", "result": "< 31.6", "unit": "nM"}, {"measurement": "IC50", "setting": "second compound 0.0949 µM", "result": "< 31.6", "unit": "nM"}, {"measurement": "IC50", "setting": "second compound 0.3 µM", "result": "< 31.6", "unit": "nM"}, {"measurement": "viability, T/C", "setting": "second compound 0.000949 µM, first compound 0.0316 µM", "result": 67, "unit": "%"}, {"measurement": "viability, T/C", "setting": "second compound 0.000949 µM, first compound 0.1 µM", "result": 60.7, "unit": "%"}, {"measurement": "viability, T/C", "setting": "second compound 0.000949 µM, first compound 0.316 µM", "result": 55.2, "unit": "%"}, {"measurement": "viability, T/C", "setting": "second compound 0.000949 µM, first compound 1 µM", "result": 59.3, "unit": "%"}, {"measurement": "viability, T/C", "setting": "second compound 0.000949 µM, first compound 3.16 µM", "result": 65.6, "unit": "%"}, {"measurement": "viability, T/C", "setting": "second compound 0.000949 µM, first compound 10 µM", "result": 63.4, "unit": "%"}, {"measurement": "viability, T/C", "setting": "second compound 0.003 µM, first compound 0.0316 µM", "result": 60.7, "unit": "%"}, {"measurement": "viability, T/C", "setting": "second compound 0.003 µM, first compound 0.1 µM", "result": 40.6, "unit": "%"}, {"measurement": "viability, T/C", "setting": "second compound 0.003 µM, first compound 0.316 µM", "result": 40.3, "unit": "%"}, {"measurement": "viability, T/C", "setting": "second compound 0.003 µM, first compound 1 µM", "result": 49.5, "unit": "%"}, {"measurement": "viability, T/C", "setting": "second compound 0.003 µM, first compound 3.16 µM", "result": 41.3, "unit": "%"}, {"measurement": "viability, T/C", "setting": "second compound 0.003 µM, first compound 10 µM", "result": 42.1, "unit": "%"}, {"measurement": "viability, T/C", "setting": "second compound 0.00949 µM, first compound 0.0316 µM", "result": 40.9, "unit": "%"}, {"measurement": "viability, T/C", "setting": "second compound 0.00949 µM, first compound 0.1 µM", "result": 34, "unit": "%"}, {"measurement": "viability, T/C", "setting": "second compound 0.00949 µM, first compound 0.316 µM", "result": 28.5, "unit": "%"}, {"measurement": "viability, T/C", "setting": "second compound 0.00949 µM, first compound 1 µM", "result": 33.9, "unit": "%"}, {"measurement": "viability, T/C", "setting": "second compound 0.00949 µM, first compound 3.16 µM", "result": 24.7, "unit": "%"}, {"measurement": "viability, T/C", "setting": "second compound 0.00949 µM, first compound 10 µM", "result": 24, "unit": "%"}, {"measurement": "viability, T/C", "setting": "second compound 0.03 µM, first compound 0.0316 µM", "result": 24.1, "unit": "%"}, {"measurement": "viability, T/C", "setting": "second compound 0.03 µM, first compound 0.1 µM", "result": 20.3, "unit": "%"}, {"measurement": "viability, T/C", "setting": "second compound 0.03 µM, first compound 0.316 µM", "result": 12.9, "unit": "%"}, {"measurement": "viability, T/C", "setting": "second compound 0.03 µM, first compound 1 µM", "result": 9.46, "unit": "%"}, {"measurement": "viability, T/C", "setting": "second compound 0.03 µM, first compound 3.16 µM", "result": 12.2, "unit": "%"}, {"measurement": "viability, T/C", "setting": "second compound 0.03 µM, first compound 10 µM", "result": 11.1, "unit": "%"}, {"measurement": "viability, T/C", "setting": "second compound 0.0949 µM, first compound 0.0316 µM", "result": 17.6, "unit": "%"}, {"measurement": "viability, T/C", "setting": "second compound 0.0949 µM, first compound 0.1 µM", "result": 17, "unit": "%"}, {"measurement": "viability, T/C", "setting": "second compound 0.0949 µM, first compound 0.316 µM", "result": 12.7, "unit": "%"}, {"measurement": "viability, T/C", "setting": "second compound 0.0949 µM, first compound 1 µM", "result": 7.56, "unit": "%"}, {"measurement": "viability, T/C", "setting": "second compound 0.0949 µM, first compound 3.16 µM", "result": 5.76, "unit": "%"}, {"measurement": "viability, T/C", "setting": "second compound 0.0949 µM, first compound 10 µM", "result": 6.14, "unit": "%"}, {"measurement": "viability, T/C", "setting": "second compound 0.3 µM, first compound 0.0316 µM", "result": 16.5, "unit": "%"}, {"measurement": "viability, T/C", "setting": "second compound 0.3 µM, first compound 0.1 µM", "result": 10.2, "unit": "%"}, {"measurement": "viability, T/C", "setting": "second compound 0.3 µM, first compound 0.316 µM", "result": 7.36, "unit": "%"}, {"measurement": "viability, T/C", "setting": "second compound 0.3 µM, first compound 1 µM", "result": 6.93, "unit": "%"}, {"measurement": "viability, T/C", "setting": "second compound 0.3 µM, first compound 3.16 µM", "result": 7.17, "unit": "%"}, {"measurement": "viability, T/C", "setting": "second compound 0.3 µM, first compound 10 µM", "result": 4.26, "unit": "%"}]}]}
